The source made the active and inactive calls. The rule behind the calls is not given here.
tested on: PBMC; experiment: Effect on cell proliferation of human PBMC into human Vgamma9Vdelta2 T cells assessed as decrease in HMBPP response upto 100 uM incubated for 3 days followed by compound washout with recurrent addition of IL-2 on every 3 days measured after 11 days in presence of HMBPP by flow cytometry; assay type: functional, cell-based; details: time 3.0 day

Compound	Activity
Cc1ccc(C/C(=C\COP(=O)(O)OP(=O)(O)O)CO)cc1	Active
O=P(O)(O)OP(=O)(O)OC/C=C(/CO)Cc1ccc(Br)cc1	Active
O=P(O)(O)OP(=O)(O)OC/C=C(/CO)Cc1ccccc1	Active
